# Read-outs that look alike come from different tables or passages of the source.
# Experiments:
# [1] = tested on: IFNα-stimulated STAT-dependent luciferase reporter in Kit225 T cells; experiment: Kit225 T cell assay, IFNα stimulated STAT-dependent luciferase reporter; type: cell-based, human
# Protocol: (§1) Kit225 T cells with a stably-integrated STAT-dependent luciferase reporter were plated in RPMI (Gibco) containing 10% heat-inactivated FBS (Gibco) and 100 U/mL PenStrep (Gibco). The cells were then stimulated with either 20 ng/mL human recombinant IL-23 or 200 U/mL human recombinant IFNα (PBL InterferonSource) for 5-6 hours. Luciferase expression was measured using the STEADY-GLO® Luciferase Assay System (Promega) according to the manufacturer's instructions.
# [2] = tested on: IL-23-stimulated STAT-dependent luciferase reporter in Kit225 T cells; experiment: Kit225 T cell assay, IL-23 stimulated STAT-dependent luciferase reporter; type: cell-based, human
# Protocol: as §1
# [3] = Kit225 T cells, 200 U/mL human recombinant IFNα, 5-6 hours, luciferase, read-out: IFNα (Kit225 T Cell Inhibition Data)
# [4] = Kit225 T cells, 20 ng/mL human recombinant IL-23, 5-6 hours, luciferase, read-out: IL23 (Kit225 T Cell Inhibition Data)
SMILES,"IC50 [1, 3]","IC50 [2, 4]","IC50 ([1]; Homo sapiens, KIT225, read-out: IFNα (Kit225 T Cell Inhibition Data))","IC50 ([2]; Homo sapiens, KIT225, read-out: IL23 (Kit225 T Cell Inhibition Data))"
CNC(=O)c1cnc(Nc2ccc(N3CCCCC3)cn2)cc1Nc1ccccc1S(C)(=O)=O [Example 435],0.05 µM,0.03 µM,–,–
CNC(=O)c1cnc(Nc2cccc(C)n2)cc1Nc1ccccc1C(N)=O [Example 67],0.14 µM,0.263 µM,–,–
CNC(=O)c1cnc(Nc2ccccn2)cc1Nc1cccc(F)c1S(C)(=O)=O [Example 46],1.39 µM,2.98 µM,–,–
CNC(=O)c1cnc(Nc2ncccc2F)cc1Nc1ccccc1C(N)=O [Example 69],1.31 µM,1.47 µM,–,–
CNC(=O)c1cnc(Nc2ccc(F)cn2)cc1Nc1cccc(C)c1C(N)=O [Example 174],0.56 µM,1.03 µM,–,–
CNC(=O)c1cnc(Nc2cc(F)ccn2)cc1Nc1cccc(F)c1S(C)(=O)=O [Example 50],2 µM,1.54 µM,–,–
CNC(=O)c1cnc(Nc2ccc(F)cn2)cc1Nc1cccc(C(=O)NC)c1OC [Example 316],0.1 µM,0.07 µM,–,–
CNC(=O)c1cnc(Nc2cc(C)ccn2)cc1Nc1ccc(F)cc1S(C)(=O)=O [Example 52],0.09 µM,0.2 µM,–,–
CNC(=O)c1cnc(Nc2cc(C)c(F)cn2)cc1Nc1cccc(C(=O)NCC(F)(F)F)c1OC [Example 346],0.02 µM,0.04 µM,–,–
CNC(=O)c1cnc(Nc2ccc(OC)cn2)cc1Nc1ccccc1C(N)=O [Example 70],0.73 µM,0.82 µM,–,–
CNC(=O)c1cnc(Nc2cccc(-c3ccccc3)n2)cc1Nc1ccccc1C(N)=O [Example 77],0.35 µM,0.538 µM,–,–
CNC(=O)c1cnc(Nc2cccc(C)n2)cc1Nc1ccc(Cl)cc1OC [Example 109],0.21 µM,0.948 µM,–,–
CNC(=O)c1cnc(Nc2ccc(C#N)c(C)n2)cc1Nc1ccc(Cl)cc1OC [Example 118],0.57 µM,1.16 µM,–,–
CNC(=O)c1cnc(Nc2cc(C)c(F)cn2)cc1Nc1cccc(C(=O)NCC2(C#N)CC2)c1OC [Example 354],0.13 µM,0.15 µM,–,–
CNC(=O)c1cnc(Nc2cc(C#N)ccn2)cc1Nc1ccccc1S(C)(=O)=O [Example 5],0.05 µM,0.0822 µM,–,–
CNC(=O)c1cnc(Nc2ccc(C(F)(F)F)cn2)cc1Nc1cccc(-c2ncn(C)n2)c1OC [Example 375],0.00947 µM,0.02 µM,–,–
CNC(=O)c1cnc(Nc2cc(C#N)ccn2)cc1Nc1ccccc1S(C)(=O)=O [Example 30],0.58 µM,0.753 µM,–,–
CNC(=O)c1cnc(Nc2ccccn2)cc1Nc1ccc(F)cc1S(C)(=O)=O [Example 299],0.09 µM,0.27 µM,–,–
CNC(=O)c1cnc(Nc2cc(C)c(F)cn2)cc1Nc1cccc(C(=O)NCC2(C)COC2)c1OC [Example 343],0.14 µM,0.16 µM,–,–
CNC(=O)c1cnc(Nc2ccc(C(F)(F)F)cn2)cc1Nc1ccccc1S(C)(=O)=O [Example 59],0.12 µM,0.37 µM,–,–
CNC(=O)c1cnc(Nc2cc(C)nc(C)n2)cc1Nc1cccc(-c2nnc[nH]2)c1OC [Example 362],0.01 µM,0.02 µM,–,–
CNC(=O)c1cnc(Nc2ccc(N3CCOCC3)cn2)cc1Nc1c(F)cccc1OC [Example 219],2.81 µM,5.09 µM,–,–
CNC(=O)c1cnc(Nc2cc(C(=O)NCCOC)ccn2)cc1Nc1ccc(F)cc1OC [Example 271],0.82 µM,1.19 µM,–,–
CNC(=O)c1cnc(Nc2cccc(C(F)(F)F)n2)cc1Nc1ccccc1S(C)(=O)=O [Example 16],0.1 µM,0.18 µM,–,–
CNC(=O)c1cnc(Nc2ccc3ccccc3n2)cc1NC1CCCC1(F)F (stereo not drawn) [Example 294],–,–,4.9 µM,6.35 µM
CNC(=O)c1cnc(Nc2ccc(C(=O)N(C)C)cn2)cc1Nc1ccc(Cl)cc1OC [Example 262],0.41 µM,0.727 µM,–,–
CNC(=O)c1cnc(Nc2ccc(F)cn2)cc1Nc1ccc(C2CC2)cc1 [Example 198],5.3 µM,4.53 µM,–,–

SMILES,"IC50 [1, 3]","IC50 [2, 4]","IC50 ([1]; Homo sapiens, KIT225, read-out: IFNα (Kit225 T Cell Inhibition Data))","IC50 ([2]; Homo sapiens, KIT225, read-out: IL23 (Kit225 T Cell Inhibition Data))"
CNC(=O)c1cnc(Nc2cc(C)cc(C)n2)cc1Nc1ccccc1S(C)(=O)=O [Example 443],0.02 µM,0.05 µM,–,–
CNC(=O)c1cnc(Nc2ccc(F)cn2)cc1Nc1ccc(C(=O)NC2CC2F)cc1S(C)(=O)=O (stereo not drawn) [Example 307],1.54 µM,3.74 µM,–,–
CNC(=O)c1cnc(Nc2cccc(C(F)(F)F)n2)cc1Nc1ccccc1C(N)=O [Example 95],0.68 µM,0.96 µM,–,–
CNC(=O)c1cnc(Nc2ccc(F)cn2)cc1Nc1ccc(C(=O)N2CC(F)(F)C2)cc1S(C)(=O)=O [Example 308],1.16 µM,1.86 µM,–,–
CNC(=O)c1cnc(Nc2cc(C)c(F)cn2)cc1Nc1cccc(C(=O)NCC(O)c2ccccc2)c1OC (stereo not drawn) [Example 331],0.04 µM,0.06 µM,–,–
CNC(=O)c1cnc(Nc2ccc(F)cn2)cc1Nc1ccccc1S(N)(=O)=O [Example 429],0.15 µM,0.25 µM,–,–
CNC(=O)c1cnc(Nc2cc(OC)ccn2)cc1Nc1cc(F)cc(F)c1OC [Example 169],0.44 µM,0.352 µM,–,–
CNC(=O)c1cnc(Nc2ccc(F)cn2)cc1Nc1ccccc1OC [Example 190],0.51 µM,0.367 µM,–,–
CNC(=O)c1cnc(Nc2ccc(N3CCOCC3)cn2)cc1Nc1cc(F)cc(F)c1OC [Example 406],0.1 µM,0.25 µM,–,–
CNC(=O)c1cnc(Nc2cc(C)c(F)cn2)cc1Nc1cccc(C(=O)NCc2ccccc2)c1OC [Example 351],0.02 µM,0.06 µM,–,–
CNC(=O)c1cnc(Nc2ccc(F)cn2)cc1Nc1cccc(C#N)c1OC [Example 357],0.03 µM,0.12 µM,–,–
CNC(=O)c1cnc(Nc2cc(C#N)ccn2)cc1Nc1cc(F)ccc1S(C)(=O)=O [Example 58],0.14 µM,0.22 µM,–,–
CNC(=O)c1cnc(Nc2ccc(N3C(=O)COCC3C)cn2)cc1Nc1ccc(Cl)cc1OC (stereo not drawn) [Example 102],0.15 µM,0.368 µM,–,–
CNC(=O)c1cnc(Nc2cc(C)ccn2)cc1Nc1cc(F)ccc1S(C)(=O)=O [Example 56],0.05 µM,0.12 µM,–,–
CNC(=O)c1cnc(Nc2cc(N(C)Cc3ccccc3)ncn2)cc1Nc1ccccc1S(C)(=O)=O [Example 425],0.38 µM,0.67 µM,–,–
CNC(=O)c1cnc(Nc2cnccn2)cc1Nc1ccc(F)cc1S(C)(=O)=O [Example 39],1.54 µM,1.48 µM,–,–
CNC(=O)c1cnc(Nc2cc(C(=O)NCC#N)ccn2)cc1Nc1cccc(F)c1OC [Example 278],0.96 µM,0.374 µM,–,–
CNC(=O)c1cnc(Nc2ccc(F)cn2)cc1Nc1cccc(F)c1OC [Example 171],0.09 µM,0.175 µM,–,–
CNC(=O)c1cnc(Nc2ccc(-c3ccccc3)cn2)cc1Nc1ccccc1C(N)=O [Example 76],0.74 µM,0.854 µM,–,–
CNC(=O)c1cnc(Nc2cc(C)c(F)cn2)cc1Nc1cccc(C(=O)NCC2(O)CCC2)c1OC [Example 342],0.13 µM,0.15 µM,–,–
CNC(=O)c1cnc(Nc2ccc(N3CCCC3=O)cn2)cc1Nc1ccccc1S(C)(=O)=O [Example 441],0.24 µM,0.46 µM,–,–
CNC(=O)c1cnc(Nc2ccc(N3CCOCC3)cn2)cc1Nc1ccccc1OC [Example 216],0.12 µM,0.152 µM,–,–
CCOc1c(F)cc(F)cc1Nc1cc(Nc2ccc(N3CCOCC3)cn2)ncc1C(=O)NC [Example 230],0.16 µM,0.224 µM,–,–
CNC(=O)c1cnc(Nc2cc(C(N)=O)ccn2)cc1Nc1ccc(F)c(F)c1OC [Example 256],0.7 µM,0.568 µM,–,–
CNC(=O)c1cnc(Nc2cnc(C)c(C)n2)cc1Nc1ccccc1S(C)(=O)=O [Example 416],0.08 µM,0.09 µM,–,–
CNC(=O)c1cnc(Nc2ccccn2)cc1Nc1ccc(F)cc1S(C)(=O)=O [Example 10],0.12 µM,0.218 µM,–,–
CNC(=O)c1cnc(Nc2ccc(N3CCOCC3)cn2)cc1Nc1ccc(F)cc1O [Example 227],3.24 µM,4.6 µM,–,–

# Reference: patent publication US9315494B2, “Alkyl-amide-substituted pyridyl compounds useful as modulators of IL-12, IL-23 and/or IFNα responses” (Bristol-Myers Squibb Company, priority 2012, dated 2016)
